Key:
Conditions in all cases: incubation time: 72 h
[1] = system: BT-474; experiment: normalised viability (% of control), CellTiter-Blue; higher = more viable cells (about 100 = DMSO control)
Procedure: (§1)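 DSRT, CellTiter-Blue viability, 72 h incubation. Signal is normalised to DMSO and benzethonium chloride controls. Value is the normalised response at dose 3.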

[2] = system: DU-4475; experiment: as above
Procedure: as §1

[3] = system: HCC1599; experiment: as above
Procedure: as §1

[4] = system: MDA-MB-453; experiment: as above
Procedure: as §1

[5] = system: MFM-223; experiment: as above
Procedure: as §1

[6] = system: SK-BR-3; experiment: as above
Procedure: as §1

[7] = system: BT-474; experiment: normalised viability (% of control), CellTiter-Blue; higher = more viable cells (about 100 = DMSO control); remark: listed apart in the source
Procedure, shortened: (§2)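 After 72 h on compound-loaded 384-well plates, breast cancer cell lines received 2.5 µl CellTiter-Blue reagent for 2 h at 37 °C. Fluorescence at 560/590 nm was scaled per plate so that vehicle was 100 and a positive kill control was 0. The value stands for normalised viability at a single listed concentration of the series.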

[8] = system: BT-549; experiment: as above
Procedure, shortened: as §2

[9] = system: CAL-120; experiment: as above
Procedure, shortened: as §2

[10] = system: CAL-148; experiment: as above
Procedure, shortened: as §2

[11] = system: CAL-51; experiment: as above
Procedure, shortened: as §2

[12] = system: CAL-85-1; experiment: as above
Procedure, shortened: as §2

[13] = system: DU-4475; experiment: as above; remark: listed apart in the source
Procedure, shortened: as §2

[14] = system: HCC1143; experiment: as above
Procedure, shortened: as §2

[15] = system: HCC1599; experiment: as above; remark: listed apart in the source
Procedure, shortened: as §2

[16] = system: HCC1937; experiment: as above
Procedure, shortened: as §2

[17] = system: HDQ-P1; experiment: as above
Procedure, shortened: as §2

[18] = system: Hs578T; experiment: as above
Procedure, shortened: as §2

[19] = system: MDA-MB-231; experiment: as above
Procedure, shortened: as §2

[20] = system: MDA-MB-436; experiment: as above
Procedure, shortened: as §2

[21] = system: MDA-MB-453; experiment: as above; remark: listed apart in the source
Procedure, shortened: as §2

[22] = system: MDA-MB-468; experiment: as above
Procedure, shortened: as §2

[23] = system: MFM-223; experiment: as above; remark: listed apart in the source
Procedure, shortened: as §2

[24] = system: SK-BR-3; experiment: as above; remark: listed apart in the source
Procedure, shortened: as §2

[25] = system: Hs578T; experiment: drug sensitivity score (DSS), CellTox Green (DSS (AUC-based score)); higher = stronger drug effect (viability inhibition or cytotoxicity); extreme values may be limits of the assay
Procedure, shortened: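 Using 20 µl of cell suspension per well, breast cancer cell lines were seeded into 384-well plates pre-loaded with compound at 5 concentrations in 10-fold steps across a compound-specific 10,000-fold range. Incubation lasted 72 h, after which CellTox Green fluorescence at 485/520 nm and then CellTiter-Glo luminescence, following 10 min at room temperature, were recorded. Each plate was normalised to 0.1 % DMSO and a positive kill control before the drug sensitivity score was derived from the area under the fitted dose-response curve.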

Cc1c2oc3c(C)ccc(C(=O)N[C@@H]4C(=O)N[C@H](C(C)C)C(=O)N5CCC[C@H]5C(=O)N(C)CC(=O)N(C)[C@@H](C(C)C)C(=O)O[C@@H]4C)c3nc-2c(C(=O)N[C@@H]2C(=O)N[C@H](C(C)C)C(=O)N3CCC[C@H]3C(=O)N(C)CC(=O)N(C)[C@@H](C(C)C)C(=O)O[C@@H]2C)c(N)c1=O [Dactinomycin]
Conditions | normalised viability [%]
[1], 10 nM | 73.5
[2], 1 nM | 32.1
[3], 10 nM | 49.3
[4], 1 nM | 49.7
[5], 10 nM | 67.5
[6], 10 nM | 24.6
[7], 1 nM | 73.3
[7], 100 nM | 25.2
[7], 1000 nM | 24.1
[8], 1 nM | 56.6
[8], 100 nM | 4.94
[8], 1000 nM | 4.47
[9], 1 nM | 51
[9], 100 nM | 11.9
[9], 1000 nM | 9.97
[10], 0.3 nM | 71.8
[10], 3 nM | 32.4
[10], 10 nM | 4.61
[11], 0.3 nM | 99.7
[11], 3 nM | 50
[11], 10 nM | 17.8
[12], 0.3 nM | 79.1
[12], 3 nM | 43.6
[12], 10 nM | 40.8
[13], 0.3 nM | 89.3
[13], 3 nM | 2.85
[13], 10 nM | 0.2
[14], 1 nM | 50.3
[14], 100 nM | 17.6
[14], 1000 nM | 16
[15], 1 nM | 87.7
[15], 100 nM | 18.1
[15], 1000 nM | 12.8
[16], 1 nM | 65.8
[16], 100 nM | 21.8
[16], 1000 nM | 18.4
[17], 0.3 nM | 85.1
[17], 3 nM | 45.2
[17], 10 nM | 35.9
[18], 1 nM | 53.8
[18], 100 nM | 3.41
[18], 1000 nM | 1.67
[19], 1 nM | 53.3
[19], 100 nM | 7.55
[19], 1000 nM | 5.39
[20], 1 nM | 48.8
[20], 100 nM | 13.1
[20], 1000 nM | 9.7
[21], 0.3 nM | 85.1
[21], 3 nM | 42.9
[21], 10 nM | 40.5
[22], 1 nM | 60.3
[22], 100 nM | 3.39
[22], 1000 nM | 4.33
[23], 1 nM | 86.2
[23], 100 nM | 8.99
[23], 1000 nM | 10.4
[24], 1 nM | 76
[24], 100 nM | 3.88
[24], 1000 nM | 4.85

Conditions | drug sensitivity score
[25] | 12.5

C[C@]1(c2nc3c(C(N)=O)cccc3[nH]2)CCCN1 [Veliparib]
Conditions | normalised viability [%]
[1], 100 nM | 101
[2], 10 nM | 98.2
[3], 100 nM | 116
[4], 10 nM | 99.4
[5], 100 nM | 89.9
[6], 100 nM | 72.5
[7], 10 nM | 101
[7], 1000 nM | 103
[7], 10000 nM | 104
[8], 10 nM | 95.3
[8], 1000 nM | 112
[8], 10000 nM | 81.7
[9], 10 nM | 81.7
[9], 1000 nM | 77
[9], 10000 nM | 70.2
[10], 3 nM | 89.3
[10], 30 nM | 86.4
[10], 100 nM | 85.6
[11], 3 nM | 114
[11], 30 nM | 105
[11], 100 nM | 106
[12], 3 nM | 87.9
[12], 30 nM | 84.9
[12], 100 nM | 84.7
[13], 3 nM | 78.6
[13], 30 nM | 78.3
[13], 100 nM | 83.4
[14], 10 nM | 66.6
[14], 1000 nM | 76.4
[14], 10000 nM | 75.3
[15], 10 nM | 100
[15], 1000 nM | 98.3
[15], 10000 nM | 100
[16], 10 nM | 72.2
[16], 1000 nM | 70
[16], 10000 nM | 61.7
[17], 3 nM | 85.6
[17], 30 nM | 93.3
[17], 100 nM | 95.9
[18], 10 nM | 101
[18], 1000 nM | 99.9
[18], 10000 nM | 100
[19], 10 nM | 80.8
[19], 1000 nM | 90.3
[19], 10000 nM | 94.8
[20], 10 nM | 83.3
[20], 1000 nM | 89.1
[20], 10000 nM | 84.6
[21], 3 nM | 109
[21], 30 nM | 98.9
[21], 100 nM | 94.4
[22], 10 nM | 113
[22], 1000 nM | 105
[22], 10000 nM | 98.9
[23], 10 nM | 88.1
[23], 1000 nM | 90.3
[23], 10000 nM | 103
[24], 10 nM | 93.8
[24], 1000 nM | 93.6
[24], 10000 nM | 84.6

Conditions | drug sensitivity score
[25] | 0

OC[C@H]1O[C@@H](n2cnc3c2N=CNC[C@H]3O)C[C@@H]1O [Pentostatin]
Conditions | normalised viability [%]
[1], 100 nM | 109
[2], 10 nM | 109
[3], 100 nM | 97.6
[4], 10 nM | 104
[5], 100 nM | 95.8
[6], 100 nM | 97.6
[7], 10 nM | 116
[7], 1000 nM | 119
[7], 10000 nM | 111
[8], 10 nM | 100
[8], 1000 nM | 98.1
[8], 10000 nM | 85.3
[9], 10 nM | 115
[9], 1000 nM | 103
[9], 10000 nM | 94.4
[10], 3 nM | 116
[10], 30 nM | 115
[10], 100 nM | 110
[11], 3 nM | 90.1
[11], 30 nM | 85.4
[11], 100 nM | 84.2
[12], 3 nM | 106
[12], 30 nM | 96.2
[12], 100 nM | 104
[13], 3 nM | 93.4
[13], 30 nM | 92.7
[13], 100 nM | 95
[14], 10 nM | 114
[14], 1000 nM | 103
[14], 10000 nM | 102
[15], 10 nM | 88.3
[15], 1000 nM | 92.3
[15], 10000 nM | 93.4
[16], 10 nM | 80.3
[16], 1000 nM | 91.8
[16], 10000 nM | 84.2
[17], 3 nM | 118
[17], 30 nM | 99
[17], 100 nM | 100
[18], 10 nM | 111
[18], 1000 nM | 101
[18], 10000 nM | 105
[19], 10 nM | 98.5
[19], 1000 nM | 102
[19], 10000 nM | 108
[20], 10 nM | 93.4
[20], 1000 nM | 88.4
[20], 10000 nM | 89.5
[21], 3 nM | 105
[21], 30 nM | 97.7
[21], 100 nM | 94.8
[22], 10 nM | 115
[22], 1000 nM | 99.4
[22], 10000 nM | 104
[23], 10 nM | 93.5
[23], 1000 nM | 93
[23], 10000 nM | 98.1
[24], 10 nM | 108
[24], 1000 nM | 104
[24], 10000 nM | 116

Conditions | drug sensitivity score
[25] | 0

Reference: the supplement of paper PMC4862054
